Test results reported in ChEMBL document CHEMBL1134934, “Synthesis and evaluation of 5-HT(2A) and 5-HT(2C) receptor binding affinities of novel pyrimidine derivatives” (Bioorg Med Chem Lett, 2002).

Experiments:
[1] = biological target: Serotonin 2 receptors; 5-HT2a & 5-HT2c (Homo sapiens) (UniProt P28223+P28335); assay: Relative affinity for 5-HT2C over 5-HT2A receptors; type: protein assay
[2] = biological target: T1, 5-hydroxytryptamine receptor 2A (Homo sapiens, UniProt P28223); assay: Affinity for 5-hydroxytryptamine 2A receptor
T1 sequence (P28223 whole entry): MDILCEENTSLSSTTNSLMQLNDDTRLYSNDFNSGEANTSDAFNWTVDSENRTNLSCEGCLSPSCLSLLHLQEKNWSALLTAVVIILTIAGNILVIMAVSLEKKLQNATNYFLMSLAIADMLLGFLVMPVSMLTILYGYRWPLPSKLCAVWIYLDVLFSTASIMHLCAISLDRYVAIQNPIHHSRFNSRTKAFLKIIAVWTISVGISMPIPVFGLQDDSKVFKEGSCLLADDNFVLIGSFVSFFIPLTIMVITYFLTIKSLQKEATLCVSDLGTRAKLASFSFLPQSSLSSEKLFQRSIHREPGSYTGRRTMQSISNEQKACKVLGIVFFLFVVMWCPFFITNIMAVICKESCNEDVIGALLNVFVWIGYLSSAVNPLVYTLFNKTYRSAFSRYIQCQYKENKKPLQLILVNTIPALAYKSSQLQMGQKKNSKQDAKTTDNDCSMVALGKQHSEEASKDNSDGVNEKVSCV

[3] = biological target: T2, 5-hydroxytryptamine receptor 2C (Homo sapiens, UniProt P28335); assay: Affinity for 5-hydroxytryptamine 2C receptor
T2 sequence (P28335 whole entry): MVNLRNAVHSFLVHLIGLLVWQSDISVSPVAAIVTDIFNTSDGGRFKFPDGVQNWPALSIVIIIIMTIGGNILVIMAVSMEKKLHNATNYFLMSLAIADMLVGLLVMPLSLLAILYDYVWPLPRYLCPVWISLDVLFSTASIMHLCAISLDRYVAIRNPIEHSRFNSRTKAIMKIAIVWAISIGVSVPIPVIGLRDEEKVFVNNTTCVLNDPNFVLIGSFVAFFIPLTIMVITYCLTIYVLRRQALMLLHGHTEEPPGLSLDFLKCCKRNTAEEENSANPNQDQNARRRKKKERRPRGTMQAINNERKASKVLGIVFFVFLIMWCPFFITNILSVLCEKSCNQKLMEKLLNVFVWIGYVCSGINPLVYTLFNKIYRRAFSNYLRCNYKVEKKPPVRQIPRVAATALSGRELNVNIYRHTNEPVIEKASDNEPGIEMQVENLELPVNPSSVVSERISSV

[4] = biological target: T3, 5-hydroxytryptamine receptor 2C (Homo sapiens) (UniProt P28335); assay: Binding affinity towards 5-hydroxytryptamine 2C receptor was determined at a concentration of 0.00001 mol/L
T3 sequence (whole entry): T2 sequence (P28335 whole entry)

[5] = biological target: T1, 5-hydroxytryptamine receptor 2A; assay: Binding affinity towards 5-hydroxytryptamine 2A receptor was determined at a concentration of 0.00001 mol/L
[6] = biological target: T3, 5-hydroxytryptamine receptor 2C (Homo sapiens); assay: Binding affinity towards 5-hydroxytryptamine 2C receptor was determined at a concentration of 0.000001 mol/L
[7] = biological target: T1, 5-hydroxytryptamine receptor 2A; assay: Binding affinity towards 5-hydroxytryptamine 2A receptor was determined at a concentration of 0.000001 mol/L

Chain of Serotonin 2 receptors; 5-HT2a & 5-HT2c (Homo sapiens) (P28223 whole entry, looked up, one chain of several): as the sequence (P28223 whole entry) above

| Ratio [1] | Ki [2] | Ki [3] | inhibition [4] | inhibition [5] | inhibition [6] | inhibition [7] | Structure (SMILES) |
| --- | --- | --- | --- | --- | --- | --- | --- |
| 1.5 | 18.3 nM | 11.9 nM | – | – | – | – | Nc1nc(SCCN2CCN(Cc3ccccc3Cl)CC2)nc(N)c1Cc1ccccc1 |
| 15 | 93.2 nM | 6.2 nM | – | – | – | – | Nc1nc(SCCN2CCN(Cc3cccc(C(F)(F)F)c3)CC2)nc(N)c1Cc1ccccc1O |
| 6.2 | 47.7 nM | 7.7 nM | – | – | – | – | COc1ccccc1Cc1c(N)nc(SCCN2CCN(Cc3ccccc3C(F)(F)F)CC2)nc1N |
| 0.2 | 4.3 nM | 18.3 nM | – | – | – | – | COc1cc(Cc2c(N)nc(SCCN3CCN(Cc4ccccc4Cl)CC3)nc2N)cc(OC)c1OC |
| 9.1 | 44.6 nM | 4.9 nM | – | – | – | – | COc1cccc(Cc2c(N)nc(SCCN3CCN(Cc4cccc(C(F)(F)F)c4)CC3)nc2N)c1 |
| 1.4 | 11.8 nM | 8.7 nM | – | – | – | – | Nc1nc(SCCN2CCN(Cc3ccccc3Cl)CC2)nc(N)c1Cc1ccccc1Cl |
| 4.2 | 22.8 nM | 5.5 nM | – | – | – | – | Nc1nc(SCCN2CCN(Cc3ccccc3Cl)CC2)nc(N)c1Cc1ccccc1O |
| 0.6 | 5.7 nM | 10.4 nM | – | – | – | – | COc1ccc(Cc2c(N)nc(SCCN3CCN(Cc4ccccc4Cl)CC3)nc2N)cc1 |
| 14 | 121 nM | 8.6 nM | – | – | – | – | CC(C)Oc1ccccc1Cc1c(N)nc(SCCN2CCN(Cc3cccc(C(F)(F)F)c3)CC2)nc1N |
| 11 | 60.4 nM | 5.5 nM | – | – | – | – | COc1ccccc1Cc1c(N)nc(SCCN2CCN(Cc3cccc(C(F)(F)F)c3)CC2)nc1N |
| – | – | – | 77% | 89% | – | – | Nc1cc(N)nc(SCCN2CCN(Cc3ccc([N+](=O)[O-])cc3)CC2)n1 |
| – | – | – | 21% | 54% | – | – | Nc1cc(N)nc(SCCCN2CCN(Cc3ccc([N+](=O)[O-])cc3)CC2)n1 |
| – | – | – | – | – | 67% | 99% | Nc1nc(SCCN2CCN(Cc3ccc([N+](=O)[O-])cc3)CC2)nc(N)c1Cc1ccccc1 |
| 7.7 | 69.9 nM | 9.1 nM | – | – | – | – | CCOc1ccccc1Cc1c(N)nc(SCCN2CCN(Cc3cccc(C(F)(F)F)c3)CC2)nc1N |
| 0.7 | 11.5 nM | 16.4 nM | – | – | – | – | COc1ccc(Cc2c(N)nc(SCCN3CCN(Cc4ccccc4C)CC3)nc2N)cc1 |
| – | – | – | 32% | 10% | – | – | Nc1nc(SCCN2CCN(Cc3ccc([N+](=O)[O-])cc3)CC2)nc(N)c1CC1CCCCC1 |
| 0.04 | 12.5 nM | 300 nM | – | – | – | – | COc1ccc(Cc2c(N)nc(SCCN3CCN(Cc4ccc(C)cc4)CC3)nc2N)cc1 |
| 2.9 | 61.1 nM | 21.4 nM | – | – | – | – | Nc1nc(SCCN2CCN(Cc3ccccc3C(F)(F)F)CC2)nc(N)c1Cc1ccccc1 |
